Series [1] deals with limb-bud derived MSCs. Briefly: Limb-bud MSC micromass chondrogenic differentiation (Alcian blue staining, real-time RT-PCR). Type of series: cell-based, mouse. Here is the method:
(§1) Limb-bud derived MSCs were isolated from E11.5 CD1 mouse embryos as previously described (Zhang et al., Bone 34:809-17 (2004)). For chondrogenic differentiation, MSCs were seeded in micromass (1×10^5 cells in […]) in 12-well plates for 1.5 hours before adding standard media, media containing DAPT (1 μM), or media containing Hes1 shRNA lentivirus. Cells were cultured for a time-course of 6 hours, 3, 5, and 7 days prior to harvest for cartilage staining (1% Alcian blue/3% glacial acetic acid) or total RNA isolations. Limb-bud derived MSCs were also cultured in monolayer for 21 days and treated with either osteogenic (10 nM dexamethasone; 50 μM ascorbic acid; 10 mM β-glycerolphosphate) or adipogenic medium (Millipore; Billerica, Mass.) in the presence and absence of DAPT. Fixed MSCs were stained for osteoblastic differentiation using an alkaline phosphatase stain (nitro blue tetrazolium chloride/5-bromo-4-chloro-3-indolyhosphate P-toluidine salt) or adipogenic differentiation using an Oil Red-O staining solution (0.36%). Total RNA was isolated from monolayer cultures at day 21 for use in real-time RT-PCR analyses.
(§2) Embryonic limb-bud tissues or micromass cultures were frozen in liquid nitrogen and then homogenized in Trizol Reagent (Invitrogen; Carlsbad, Calif.) via rendering through a 25-gauge needle and syringe. Total cellular RNA was extracted following the manufacture's protocol. RNA was quantified using a NanoDrop spectrophotometer (NanoDrop; Wilmington, Del.) and equal concentrations of total RNA were pooled for synthesis of cDNA. Total RNA (1 μg) was reverse transcribed using the iScript™ cDNA synthesis kit (Bio-Rad; Hercules, Calif.) according to the manufacture's instructions. Reverse transcribed cDNA was analyzed by real-time RT-PCR with mouse-specific primers for: Sox9, Runx2, Col2a1, Agc1, Col1a1, Ap, Oc, Pparγ, Jagged1, Jagged2, Delta-like1, Delta-like3, Delta-like4, Notch1, Notch2, Notch3, Notch4, Hes1, Hes3, Hes5, Hes7, Hey1, Hey2, HeyL, and CyclinD1. Primers were designed using Applied Biosystems software (Applied Biosystems; Foster City, Calif.). Sequences are available upon request. DNA amplification was achieved using the SYBR® Green PCR Master Mix (Applied Biosystems; Foster City, Calif.) and the RotorGene real-time DNA amplification system (Corbett Research; Sydney, Australia). Gene expression was normalized to β-actin expression levels and then normalized to control samples.
To determine the role of Notch signaling in MSCs, Notch loss-of-function assays were performed on E11.5 limb-bud derived MSC cultures using the Notch inhibitor, DAPT. […] The effect of DAPT was also assessed on the expression of the chondrogenic markers Sox9, Col2a1, and Agc1 via real-time RT-PCR.
On the technique in general: Quantitative PCR measures a nucleic acid by following its amplification.

Series [2] relates to limb-bud derived MSCs. Briefly: Limb-bud MSC adipogenic monolayer differentiation (Oil Red-O staining, real-time RT-PCR). The following applies: DAPT 1 μM, 21 days. In kind it is cell-based, mouse. Here is the method:
as §1
as §2, with “Sequences are available upon request. DNA amplification was achieved using the SYBR® Green PCR Master Mix (Applied Biosystems; Foster City, Calif.) and the RotorGene real-time DNA amplification system (Corbett Research; Sydney, Australia). Gene expression was normalized to β-actin expression levels and then normalized to control samples.” left out

In series [3] the test system is cleaved Notch2 (NICD2). Briefly: Western blot for cleaved, active Notch2 (NICD2) in cultured limb-bud derived MSCs. In kind it is cell-based, mouse. To be noted: DAPT 1 um, cultured overnight, vs absence of DAPT. Here is the method:
Total protein was isolated from either whole mouse limb-bud tissue or cultured limb-bud derived MSCs using Golden lysis buffer. The cultured limb-bud derived MSCs were plated at the density of 6×10^6 cells in 10 cm dishes and cultured overnight in 10% FBS DMEM media both in the presence and absence of DAPT (1 um). Protein samples (˜100 μg) from each isolation were subsequently separated on 10% SDS-polyacrylamide and transferred to a PVDF membrane. NICD1 and NICD2 cleaved proteins were detected using the bTAN 20 (Notch1) and C651.6DdHN (Notch2) primary antibodies (0.4 ug/ml) and then further probed with appropriate secondary antibody (1:3000). Anti-β-actin antibody (Sigma; St. Louis, Mo.) was used as a control for equal protein loading. Immunoblots were detected using Supersignal west femto maximum sensitivity substrate (Pierce; Rockford, Ill.).
To determine which Notch receptor is active in the limb-bud mesenchyme, total protein was isolated from cultured MSCs in the presence and absence of the Notch inhibitor, N-(3,5-difluorophenylacetyl-L-alanyl)]-S-phenylglycine t-ButylEster (DAPT, Calbiochem; San Diego, Calif.), or directly from wild-type E11.5 whole limb-bud tissue, and performed western blot analyses using Notch1 and Notch2 antibodies that can detect the cleaved or active (NICD) form of the receptor. […]

Series [4] relates to limb-bud derived MSCs. Briefly: Limb-bud MSC osteogenic monolayer differentiation (alkaline phosphatase staining, real-time RT-PCR). In kind it is cell-based, mouse. The following applies: DAPT 1 μM, 21 days. Here is the method: as §1
as §2, with “Sequences are available upon request. DNA amplification was achieved using the SYBR® Green PCR Master Mix (Applied Biosystems; Foster City, Calif.) and the RotorGene real-time DNA amplification system (Corbett Research; Sydney, Australia). Gene expression was normalized to β-actin expression levels and then normalized to control samples.” left out

Series [5] deals with hMSCs. The series can be described thus: BrdU ELISA proliferation assay of hMSCs on Jag1 coated plates. Type of series: cell-based, human. The following applies: passage 3 hMSCs, 24 hours, vs IgG. As for the experimental part:
(§3) To determine if Notch signaling can induce important regulators of stem cell maintenance, passage 3 hMSCs were cultured on Jag1 and IgG coated plates for 24 hours and isolated RNA for real-time RT-PCR analyses (FIG. 11B). […] Therefore, Jag1/Notch signaling regulated hMSC maintenance and expansion via this network of stem cell factors. Finally, the same culture system and passage 3 hMSCs were used to determine if Jag1 regulated the proliferation of hMSCs over a relatively short time interval. BrdU ELISA assays were performed for hMSCs cultured on Jag1 and IgG coated plates for 24 hours.
(Dividing cells build labelled thymidine or BrdU into new DNA.)

Series [6] has as its system Notch signaling in hMSCs. The series can be described thus: RBPjP-dependent Notch luciferase reporter in hMSCs cultured on Jag1 coated plates. Type of series: cell-based, human. Here is the method:
This lentivirus expresses GFP allowing determination of infection efficiency after 24 hours and during multiple passages of the cells. […] A protocol for coating culture dishes with the recombinant Jag1 protein using 5 μg/ml, 10 μg/ml, and 15 μg/ml concentrations of Jag1 and 10 μg/ml concentration of IgG as controls was established. […] Next, to confirm that this Jag1 coating technology induced Notch signaling in hMSCs, hMSCs transfected with the RBPjP-dependent Notch luciferase reporter were cultured on 5 μg/ml, 10 μg/ml, and 15 μg/ml Jag1 and IgG coated plates.
(A reporter such as luciferase makes a cellular process visible.)

Series [7] deals with hMSCs. Briefly: Real-time RT-PCR of Notch target and stem cell regulator genes in hMSCs on Jag1 coated plates. In kind it is cell-based, human. The following applies: Jag1 coated plates 10 μg/ml, passage 3 hMSCs, 24 hours. Here is the method: as §3

We go through 2 compounds from patent US20120294837A1, “METHODS OF ISOLATING AND CULTURING MESENCHYMAL STEM CELLS” (UNIVERSITY OF ROCHESTER, priority 2010, published 2012).

Take `C[C@H](NC(=O)Cc1cc(F)cc(F)c1)C(=O)N[C@H](C(=O)OC(C)(C)C)c1ccccc1` [DAPT]: the cartilage nodule formation entry in series [1] (1 μM DAPT, micromass culture, Alcian blue) is on record as “significantly enhanced cartilage nodule formation”. Further, the Agc1 expression result in series [1] (DAPT 1 μM, day 7, real-time RT-PCR) was “significantly reduced”. For the same compound, the “Sox9, Col2a1, and Agc1 expression” value in series [1] (DAPT 1 μM, first 3-5 days of culture, vs untreated cultures, real-time RT-PCR) is reported as “enhanced”. Also, the “limb-bud MSC differentiation” value in series [1] (continuous DAPT 1 μM vs vehicle, chondrogenic, osteogenic and adipogenic cultures (FIG. 2A-2C)) is on record as “enhances limb-bud MSC differentiation without biasing lineage determination”. Besides, in series [2] (adipogenic media), the “Oil Red-0 staining” value was “elevated Oil Red-0 staining” and the “adipogenic differentiation of MSCs” value is recorded as “enhanced normal adipogenic differentiation”. Moreover, the “expression of the adipocyte marker gene Pparγ” value in series [2] (real-time RT-PCR) is “increase”. The “abundance of the cleaved Notch2 (NICD2)” value in series [3] is reported as “reduce the abundance of the cleaved Notch2 (NICD2)”. Besides, in series [4] (osteogenic media), the alkaline phosphatase staining result is given as “elevated alkaline phosphatase staining” and the “osteoblastic differentiation of MSCs” value is given as “enhanced normal osteoblastic differentiation”. Besides, the “expression of osteoblast marker genes Col1a1, AP, and Oc” value in series [4] (real-time RT-PCR) is “significant increase”.

As to “Jag1: recombinant Jag1 protein, Notch ligand, coated on culture dishes to activate Notch signaling”, the “increase of BrdU incorporation as compared to controls” value in series [5] is listed as “more than 50%”. In addition, the “hMSC growth, cell size, shape, cell survival on coated plates” value in series [6] (Jag1 coated plates) was “no obvious changes in cell size, shape, or cell survival”. For the same compound, in series [6] (plates coated with 10 μg/ml Jag1, 5, 10 and 15 μg/ml compared, IgG control), the “luciferase activity of Notch reporter” value is recorded as “maximal luciferase activity”. In addition, the “Oct4 expression compared to Sox2 and Nanog” value in series [7] is given as “only mildly enhanced”. For the same compound, in series [7] (vs IgG), the “Hes1 expression over controls” value is “approximately 7 fold”; the “expression of Oct4, Sox2, and Nanog” value was “induced the expression”.
